Measured values taken from paper PMC4809247 (Journal of medicinal chemistry, 2015).

How the values were obtained:
rat mGlu5 = rat mGlu5 (Rattus norvegicus, UniProt P31424); test: Calcium mobilization mGlu5 assay; type: cell-based; settings: for mGlu5 pEC50 (± SEM): calcium mobilization, average of n ≥ 3 (n = 2 where marked)
rat mGlu3 = rat mGlu3 (Rattus norvegicus, UniProt P31422); settings: calcium mobilization; average of n ≥ 3
[1] = Intrinsic clearance in rat liver microsomes; type: in vitro ADME; settings: predicted hepatic clearance based on intrinsic clearance in rat liver microsomes

rat mGlu5, sequence (P31424 21-1203): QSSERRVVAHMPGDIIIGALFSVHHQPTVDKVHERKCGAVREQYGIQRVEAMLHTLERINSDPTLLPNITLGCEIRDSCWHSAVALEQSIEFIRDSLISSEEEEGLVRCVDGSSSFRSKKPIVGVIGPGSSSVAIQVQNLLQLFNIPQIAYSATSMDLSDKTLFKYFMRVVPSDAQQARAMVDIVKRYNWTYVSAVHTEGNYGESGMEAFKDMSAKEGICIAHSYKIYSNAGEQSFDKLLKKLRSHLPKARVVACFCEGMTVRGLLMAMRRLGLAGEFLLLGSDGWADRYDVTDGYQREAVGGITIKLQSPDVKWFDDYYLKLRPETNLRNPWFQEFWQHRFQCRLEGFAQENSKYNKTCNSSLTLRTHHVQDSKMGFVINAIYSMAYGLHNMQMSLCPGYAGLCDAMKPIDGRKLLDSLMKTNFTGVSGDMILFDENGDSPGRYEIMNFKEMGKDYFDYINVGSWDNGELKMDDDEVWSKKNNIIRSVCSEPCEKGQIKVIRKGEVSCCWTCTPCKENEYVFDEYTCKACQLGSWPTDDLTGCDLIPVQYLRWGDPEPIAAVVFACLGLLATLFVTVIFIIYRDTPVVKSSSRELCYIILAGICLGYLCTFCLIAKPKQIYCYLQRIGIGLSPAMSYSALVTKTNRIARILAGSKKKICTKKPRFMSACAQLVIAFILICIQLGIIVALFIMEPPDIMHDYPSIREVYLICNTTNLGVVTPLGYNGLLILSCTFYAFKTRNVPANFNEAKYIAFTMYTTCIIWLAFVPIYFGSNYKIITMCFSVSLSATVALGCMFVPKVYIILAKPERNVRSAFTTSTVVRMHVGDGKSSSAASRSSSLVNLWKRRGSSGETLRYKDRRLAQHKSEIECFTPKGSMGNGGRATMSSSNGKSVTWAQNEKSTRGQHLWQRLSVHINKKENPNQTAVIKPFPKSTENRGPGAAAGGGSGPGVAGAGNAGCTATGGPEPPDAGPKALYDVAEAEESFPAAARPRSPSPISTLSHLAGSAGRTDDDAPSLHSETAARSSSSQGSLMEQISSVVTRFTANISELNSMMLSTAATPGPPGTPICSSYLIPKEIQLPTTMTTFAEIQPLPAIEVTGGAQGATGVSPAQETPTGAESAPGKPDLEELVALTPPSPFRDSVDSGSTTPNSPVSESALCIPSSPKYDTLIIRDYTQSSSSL
rat mGlu3, sequence (P31422 23-879): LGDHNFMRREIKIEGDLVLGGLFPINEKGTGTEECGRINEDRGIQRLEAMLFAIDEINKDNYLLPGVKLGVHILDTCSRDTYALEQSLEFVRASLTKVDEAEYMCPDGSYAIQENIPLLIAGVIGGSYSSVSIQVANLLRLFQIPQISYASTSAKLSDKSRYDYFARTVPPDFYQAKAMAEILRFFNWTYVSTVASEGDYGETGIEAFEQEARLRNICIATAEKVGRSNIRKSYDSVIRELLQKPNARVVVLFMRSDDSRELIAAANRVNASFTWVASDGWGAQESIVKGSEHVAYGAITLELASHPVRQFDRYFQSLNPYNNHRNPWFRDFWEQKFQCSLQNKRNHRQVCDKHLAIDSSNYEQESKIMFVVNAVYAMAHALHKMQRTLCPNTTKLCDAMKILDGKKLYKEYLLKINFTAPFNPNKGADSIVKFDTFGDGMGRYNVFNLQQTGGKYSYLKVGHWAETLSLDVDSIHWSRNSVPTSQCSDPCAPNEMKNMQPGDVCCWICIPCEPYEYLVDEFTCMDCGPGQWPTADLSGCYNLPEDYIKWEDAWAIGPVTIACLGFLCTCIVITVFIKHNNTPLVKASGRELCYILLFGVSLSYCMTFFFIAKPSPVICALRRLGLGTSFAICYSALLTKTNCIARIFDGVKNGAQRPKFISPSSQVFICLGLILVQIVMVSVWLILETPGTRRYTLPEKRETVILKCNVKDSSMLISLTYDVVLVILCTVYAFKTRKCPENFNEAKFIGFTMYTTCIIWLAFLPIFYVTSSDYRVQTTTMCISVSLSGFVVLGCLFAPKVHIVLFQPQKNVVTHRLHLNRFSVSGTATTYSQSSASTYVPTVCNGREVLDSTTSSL

In the case of `C[C@@H]1CN(c2ccc(F)cc2)C(=O)c2cc(COc3ccccc3)nn21` [Compound 18], the “fold preference for mGlu5 vs mGlu3 activity” value (rat mGlu5) was about 6 fold, the “mGlu5 pEC50 (± SEM)” value (rat mGlu5) was 7.34 ± 0.02 and the “mGlu3 pIC50 (± SEM)” value (rat mGlu3) was 6.57 ± 0.15.
In the case of `C[C@@H]1CN(c2ccc(F)cc2)C(=O)c2cc(COc3ccccc3F)nn21` [Compound 22], the “mGlu5 pEC50 (± SEM)” value (rat mGlu5) was 6.71 ± 0.04 and the “mGlu3 pIC50 (± SEM)” value (rat mGlu3) was 6.28 ± 0.20.
In the case of `C[C@@H]1CN(c2ccc(F)cc2)C(=O)c2cc(COc3cccc(F)c3)nn21` [Compound 23], the “mGlu5 pEC50 (± SEM)” value (rat mGlu5) was 7.14 ± 0.02 and the “mGlu3 pIC50 (± SEM)” value (rat mGlu3) was 6.11 ± 0.03.
With `C[C@@H]1CN(c2ccc(F)cc2)C(=O)c2cc(COc3ccc(F)cc3F)nn21` [Compound 25] the “mGlu5 pEC50 (± SEM)” value (rat mGlu5) was 6.51 ± 0.05 and the “mGlu3 pIC50 (± SEM)” value (rat mGlu3) was 6.38 ± 0.22.
With `Cc1ccccc1OCc1cc2n(n1)[C@H](C)CN(c1ccc(F)cc1)C2=O` [Compound 26] the “mGlu5 pEC50 (± SEM)” value (rat mGlu5) was 5.83 ± 0.04.
For `Cc1ccc(OCc2cc3n(n2)[C@H](C)CN(c2ccc(F)cc2)C3=O)cc1` [Compound 28], the “mGlu5 pEC50 (± SEM)” value (rat mGlu5) was 5.97 ± 0.04 and the “mGlu3 pIC50 (± SEM)” value (rat mGlu3) was 5.92 ± 0.02.
For `C[C@@H]1CN(c2ccc(F)cc2)C(=O)c2cc(COc3ccccc3Cl)nn21` [Compound 29], the “mGlu3 pIC50 (± SEM)” value (rat mGlu3) was 6.27 ± 0.18.
With `COc1ccccc1OCc1cc2n(n1)[C@H](C)CN(c1ccc(F)cc1)C2=O` [Compound 32] the “mGlu3 pIC50 (± SEM)” value (rat mGlu3) was 5.59 ± 0.18.
With `COc1cccc(OCc2cc3n(n2)[C@H](C)CN(c2ccc(F)cc2)C3=O)c1` [Compound 33] the “mGlu5 pEC50 (± SEM)” value (rat mGlu5) was 5.74 ± 0.04.
For `COc1ccc(OCc2cc3n(n2)[C@H](C)CN(c2ccc(F)cc2)C3=O)cc1` [Compound 34], the “mGlu5 pEC50 (± SEM)” value (rat mGlu5) was 5.87 ± 0.16 and the “mGlu3 pIC50 (± SEM)” value (rat mGlu3) was 5.98 ± 0.02.
With `C[C@@H]1CN(c2ccc(F)cc2)C(=O)c2cc(COc3ccc(C(F)(F)F)cc3)nn21` [Compound 35] the “mGlu5 pEC50 (± SEM)” value (rat mGlu5) was under 4.5 and the “mGlu3 pIC50 (± SEM)” value (rat mGlu3) was 5.73 ± 0.01.
In the case of `CCc1ccc(OCc2cc3n(n2)[C@H](C)CN(c2ccc(F)cc2)C3=O)cc1` [Compound 36], the “mGlu5 pEC50 (± SEM)” value (rat mGlu5) was 5.49 ± 0.03.
With `C[C@@H]1CN(c2ccc(F)cc2)C(=O)c2cc(COc3ccc(C#N)cc3)nn21` [Compound 37] the “mGlu5 pEC50 (± SEM)” value (rat mGlu5) was 5.71 ± 0.06 and the “mGlu3 pIC50 (± SEM)” value (rat mGlu3) was 6.11 ± 0.12.
With `CCOc1ccc(OCc2cc3n(n2)[C@H](C)CN(c2ccc(F)cc2)C3=O)cc1` [Compound 38] the “mGlu5: no activity up to the highest concentration tested” value (“mGlu5: no activity up” below) (rat mGlu5) was over 30 µM, the “mGlu5 pEC50 (± SEM)” value (rat mGlu5) was under 4.5 and the “mGlu3 pIC50 (± SEM)” value (rat mGlu3) was 5.94 ± 0.06.
In the case of `C[C@@H]1CN(c2ccc(F)cc2)C(=O)c2cc(COc3ccc(OC(F)(F)F)cc3)nn21` [Compound 39], the “mGlu5: no activity up” value (rat mGlu5) was over 30 µM, the “mGlu5 pEC50 (± SEM)” value (rat mGlu5) was under 4.5 and the “mGlu3 pIC50 (± SEM)” value (rat mGlu3) was 5.39 ± 0.04.
For `C[C@@H]1CN(c2ccc(F)cc2)C(=O)c2cc(COc3ncccc3F)nn21` [Compound 41], the “mGlu3 pIC50 (± SEM)” value (rat mGlu3) was 5.96 ± 0.02.
With `C[C@@H]1CN(c2ccc(F)cc2)C(=O)c2cc(COc3ncccc3C(F)(F)F)nn21` [Compound 42] the “mGlu5: no activity up” value (rat mGlu5) was over 30 µM and the “mGlu5 pEC50 (± SEM)” value (rat mGlu5) was under 4.5.
In the case of `COc1cccnc1OCc1cc2n(n1)[C@H](C)CN(c1ccc(F)cc1)C2=O` [Compound 43], the “mGlu5: no activity up” value (rat mGlu5) was over 30 µM and the “mGlu5 pEC50 (± SEM)” value (rat mGlu5) was under 4.5.
In the case of `Cc1ccnc(OCc2cc3n(n2)[C@H](C)CN(c2ccc(F)cc2)C3=O)c1` [Compound 44], the “mGlu3 pIC50 (± SEM)” value (rat mGlu3) was 5.68 ± 0.01.
With `C[C@@H]1CN(c2ccc(F)cc2)C(=O)c2cc(COc3cc(C(F)(F)F)ccn3)nn21` [Compound 45] the “mGlu3 pIC50 (± SEM)” value (rat mGlu3) was 5.78 ± 0.01.
With `COc1ccnc(OCc2cc3n(n2)[C@H](C)CN(c2ccc(F)cc2)C3=O)c1` [Compound 46] the “mGlu3 pIC50 (± SEM)” value (rat mGlu3) was 5.43 ± 0.00.
In the case of `C[C@@H]1CN(c2ccc(F)cc2)C(=O)c2cc(COc3ccc(F)cn3)nn21` [Compound 47], the “mGlu3 pIC50 (± SEM)” value (rat mGlu3) was 6.27 ± 0.02.
In the case of `Cc1cccc(OCc2cc3n(n2)[C@H](C)CN(c2ccc(F)cc2)C3=O)n1` [Compound 49], the “mGlu3 pIC50 (± SEM)” value (rat mGlu3) was 5.62 ± 0.02.
For `C[C@@H]1CN(c2ccc(F)cc2)C(=O)c2cc(COc3cccc(C(F)(F)F)n3)nn21` [Compound 50], the “mGlu5: no activity up” value (rat mGlu5) was over 30 µM, the “mGlu5 pEC50 (± SEM)” value (rat mGlu5) was under 4.5 and the “mGlu3 pIC50 (± SEM)” value (rat mGlu3) was 5.63 ± 0.02.
For `C[C@@H]1CN(c2ccccc2F)C(=O)c2cc(COc3ccc(F)cn3)nn21` [Compound 55], the “rat CLhep” value [1] was 64.7 mL/min/kg.
In the case of `C[C@@H]1CN(c2cccc(F)c2)C(=O)c2cc(COc3ccc(F)cn3)nn21` [Compound 56], the “rat CLhep” value [1] was 53.0 mL/min/kg and the “mGlu3 pIC50 (± SEM)” value (rat mGlu3) was 6.72 ± 0.08.
In the case of `C[C@@H]1CN(c2ccccc2Cl)C(=O)c2cc(COc3ccc(F)cn3)nn21` [Compound 57], the “rat CLhep” value [1] was 66.5 mL/min/kg and the “mGlu3 pIC50 (± SEM)” value (rat mGlu3) was 6.85 ± 0.16.
For `C[C@@H]1CN(c2cccc(Cl)c2)C(=O)c2cc(COc3ccc(F)cn3)nn21` [Compound 58], the “rat CLhep” value [1] was 51.9 mL/min/kg.
For `C[C@@H]1CN(c2ccc(Cl)cc2)C(=O)c2cc(COc3ccc(F)cn3)nn21` [Compound 59], the “mGlu3 pIC50 (± SEM)” value (rat mGlu3) was 6.71 ± 0.13.
For `Cc1cccc(N2C[C@@H](C)n3nc(COc4ccc(F)cn4)cc3C2=O)c1` [Compound 61], the “rat CLhep” value [1] was 58.4 mL/min/kg and the “mGlu3 pIC50 (± SEM)” value (rat mGlu3) was 6.67 ± 0.15.
For `COc1cccc(N2C[C@@H](C)n3nc(COc4ccc(F)cn4)cc3C2=O)c1` [Compound 64], the “mGlu3 pIC50 (± SEM)” value (rat mGlu3) was 6.70 ± 0.06.
For `COc1ccc(N2C[C@@H](C)n3nc(COc4ccc(F)cn4)cc3C2=O)cc1` [Compound 65], the “mGlu3 pIC50 (± SEM)” value (rat mGlu3) was 6.49 ± 0.10.
In the case of `C[C@@H]1CN(c2cccc(F)c2F)C(=O)c2cc(COc3ccc(F)cn3)nn21` [Compound 66], the “rat CLhep” value [1] was 63.6 mL/min/kg and the “mGlu3 pIC50 (± SEM)” value (rat mGlu3) was 6.73 ± 0.16.
For `C[C@@H]1CN(c2cc(F)ccc2F)C(=O)c2cc(COc3ccc(F)cn3)nn21` [Compound 67], the “rat CLhep” value [1] was 49.6 mL/min/kg.
In the case of `C[C@@H]1CN(c2c(F)cccc2F)C(=O)c2cc(COc3ccc(F)cn3)nn21` [Compound 68], the “rat CLhep” value [1] was 64.6 mL/min/kg.
For `C[C@@H]1CN(c2cccnc2)C(=O)c2cc(COc3ccc(F)cn3)nn21` [Compound 70], the “mGlu3 pIC50 (± SEM)” value (rat mGlu3) was 6.36 ± 0.13.
For `C[C@@H]1CN(c2ccncc2)C(=O)c2cc(COc3ccc(F)cn3)nn21` [Compound 71], the “mGlu5 pEC50 (± SEM)” value (rat mGlu5) was under 4.5 and the “mGlu3 pIC50 (± SEM)” value (rat mGlu3) was 6.05 ± 0.04.
For `C[C@@H]1CN(c2ccc(F)cn2)C(=O)c2cc(COc3ccc(F)cn3)nn21` [Compound 72], the “mGlu3 pIC50 (± SEM)” value (rat mGlu3) was 6.46 ± 0.07.
With `C[C@@H]1CN(c2ccccc2F)C(=O)c2cc(COc3ccc(Cl)cn3)nn21` [Compound 80] the “mGlu3 pIC50 (± SEM)” value (rat mGlu3) was 6.65 ± 0.04.
In the case of `C[C@@H]1CN(c2cccc(F)c2)C(=O)c2cc(COc3ccc(Cl)cn3)nn21` [Compound 81], the “mGlu3 pIC50 (± SEM)” value (rat mGlu3) was 6.69 ± 0.04.
With `C[C@@H]1CN(c2ccccc2Cl)C(=O)c2cc(COc3ccc(Cl)cn3)nn21` [Compound 82] the “mGlu3 pIC50 (± SEM)” value (rat mGlu3) was 6.48 ± 0.08.
For `C[C@@H]1CN(c2cccc(Cl)c2)C(=O)c2cc(COc3ccc(Cl)cn3)nn21` [Compound 83], the “mGlu3 pIC50 (± SEM)” value (rat mGlu3) was 6.25 ± 0.07.
For `C[C@@H]1CN(c2ccc(Cl)cc2)C(=O)c2cc(COc3ccc(Cl)cn3)nn21` [Compound 84], the “mGlu3 pIC50 (± SEM)” value (rat mGlu3) was 5.91 ± 0.25.
For `Cc1ccccc1N1C[C@@H](C)n2nc(COc3ccc(Cl)cn3)cc2C1=O` [Compound 85], the “mGlu3 pIC50 (± SEM)” value (rat mGlu3) was 6.24 ± 0.18.
In the case of `Cc1cccc(N2C[C@@H](C)n3nc(COc4ccc(Cl)cn4)cc3C2=O)c1` [Compound 86], the “mGlu3 pIC50 (± SEM)” value (rat mGlu3) was 6.41 ± 0.05.
For `Cc1ccc(N2C[C@@H](C)n3nc(COc4ccc(Cl)cn4)cc3C2=O)cc1` [Compound 87], the “mGlu3 pIC50 (± SEM)” value (rat mGlu3) was 6.39 ± 0.21.
For `COc1cccc(N2C[C@@H](C)n3nc(COc4ccc(Cl)cn4)cc3C2=O)c1` [Compound 89], the “mGlu3 pIC50 (± SEM)” value (rat mGlu3) was 6.50 ± 0.05.
For `C[C@@H]1CN(c2ccccc2C#N)C(=O)c2cc(COc3ccc(Cl)cn3)nn21` [Compound 91], the “mGlu3 pIC50 (± SEM)” value (rat mGlu3) was 6.37 ± 0.05.
With `C[C@@H]1CN(c2cccc(C#N)c2)C(=O)c2cc(COc3ccc(Cl)cn3)nn21` [Compound 92] the “mGlu3 pIC50 (± SEM)” value (rat mGlu3) was 6.08 ± 0.26.
For `C[C@@H]1CN(c2ccc(C#N)cc2)C(=O)c2cc(COc3ccc(Cl)cn3)nn21` [Compound 93], the “mGlu3 pIC50 (± SEM)” value (rat mGlu3) was 6.27 ± 0.05.
For `C[C@@H]1CN(c2ccc(F)cc2F)C(=O)c2cc(COc3ccc(Cl)cn3)nn21` [Compound 95], the “mGlu3 pIC50 (± SEM)” value (rat mGlu3) was 6.55 ± 0.08.
For `C[C@@H]1CN(c2cc(F)cc(F)c2)C(=O)c2cc(COc3ccc(Cl)cn3)nn21` [Compound 97], the “mGlu3 pIC50 (± SEM)” value (rat mGlu3) was 6.38 ± 0.07.
With `C[C@@H]1CN(c2cc(F)ccc2C#N)C(=O)c2cc(COc3ccc(Cl)cn3)nn21` [Compound 98] the “mGlu5: no activity up” value (rat mGlu5) was over 30 µM, the “mGlu5 pEC50 (± SEM)” value (rat mGlu5) was under 4.5 and the “mGlu3 pIC50 (± SEM)” value (rat mGlu3) was 6.28 ± 0.06.
In the case of `C[C@@H]1CN(c2ncccc2F)C(=O)c2cc(COc3ccc(Cl)cn3)nn21` [Compound 102], the “mGlu3 pIC50 (± SEM)” value (rat mGlu3) was 6.44 ± 0.03.
With `C[C@@H]1CN(c2ncccc2C#N)C(=O)c2cc(COc3ccc(Cl)cn3)nn21` [Compound 103] the “mGlu5 pEC50 (± SEM)” value (rat mGlu5) was under 4.5.
In the case of `C[C@@H]1CN(c2ccc(F)cn2)C(=O)c2cc(COc3ccc(Cl)cn3)nn21` [Compound 104], the “mGlu3 pIC50 (± SEM)” value (rat mGlu3) was 6.59 ± 0.09.
In the case of `C[C@@H]1CN(c2cccc(F)n2)C(=O)c2cc(COc3ccc(Cl)cn3)nn21` [Compound 105], the “mGlu3 pIC50 (± SEM)” value (rat mGlu3) was 6.53 ± 0.08.
